Measurements published in patent US10730863B2, “Bridged bicyclic compounds as farnesoid X receptor modulators” (BRISTOL-MYERS SQUIBB COMPANY, priority 2017, dated 2020).

Each molecule was assayed against FXR (Homo sapiens (Human), UniProt Q96RI1) (assay: FXR EC50 (FXR agonist activity reported with each example)).
Assay type: cell-based

FXR, sequence (Q96RI1 262-486): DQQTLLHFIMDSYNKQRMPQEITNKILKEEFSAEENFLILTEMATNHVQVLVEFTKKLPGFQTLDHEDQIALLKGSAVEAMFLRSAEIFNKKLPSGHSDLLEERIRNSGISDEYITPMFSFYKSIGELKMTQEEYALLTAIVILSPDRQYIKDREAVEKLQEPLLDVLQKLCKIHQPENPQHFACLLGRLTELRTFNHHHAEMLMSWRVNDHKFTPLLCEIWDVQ

| SMILES | EC50 [nM] |
| --- | --- |
| O=C(O)c1ccc(CNC(=O)C23CCC(OCc4c(-c5c(Cl)cccc5Cl)noc4C4CC4)(CC2)CC3)cc1 [Example 141, 4-((4-((5-cyclopropyl-3-(2,6-dichlorophenyl)isoxazol-4-yl)methoxy)bicyclo[2.2.2]octane-1-carboxamido)methyl)benzoic acid] | 2800 |
| O=C(O)c1ccccc1CNC(=O)C12CCC(OCc3c(-c4c(Cl)cccc4Cl)noc3C3CC3)(CC1)CC2 [Example 142, 2-((4-((5-cyclopropyl-3-(2,6-dichlorophenyl)isoxazol-4-yl)methoxy)bicyclo[2.2.2]octane-1-carboxamido)methyl)benzoic acid] | 1300 |
| O=C(O)c1cccc(CNC(=O)C23CCC(OCc4c(-c5c(Cl)cccc5Cl)noc4C4CC4)(CC2)CC3)c1 [Example 143, 3-((4-((5-cyclopropyl-3-(2,6-dichlorophenyl)isoxazol-4-yl)methoxy)bicyclo[2.2.2]octane-1-carboxamido)methyl)benzoic acid] | 1300 |
| CN(Cc1ccccc1C(=O)O)C(=O)C12CCC(OCc3c(-c4c(Cl)cccc4Cl)noc3C3CC3)(CC1)CC2 [Example 144, 2-((4-((5-cyclopropyl-3-(2,6-dichlorophenyl)isoxazol-4-yl)methoxy)-N-methylbicyclo[2.2.2]octane-1-carboxamido)methyl)benzoic acid] | 160 |
| O=C(O)CC1CCN(C(=O)C23CCC(OCc4c(-c5c(Cl)cccc5Cl)noc4C4CC4)(CC2)CC3)CC1 [Example 145, 2-(1-(4-((5-cyclopropyl-3-(2,6-dichlorophenyl)isoxazol-4-yl)methoxy)bicyclo[2.2.2]octane-1-carbonyl)piperidin-4-yl)acetic acid] | 3800 |
| O=C(O)c1cccc2c1CN(C(=O)C13CCC(OCc4c(-c5c(Cl)cccc5Cl)noc4C4CC4)(CC1)CC3)CC2 [Example 146, 2-(4-((5-cyclopropyl-3-(2,6-dichlorophenyl)isoxazol-4-yl)methoxy)bicyclo[2.2.2]octane-1-carbonyl)-1,2,3,4-tetrahydroisoquinoline-8-carboxylic acid] | 3100 |
| O=C(O)c1cccc(-c2noc(C34CCC(COCc5c(-c6c(Cl)cccc6Cl)noc5C5CC5)(CC3)CC4)n2)c1 [Example 151, 3-(5-(4-(((5-cyclopropyl-3-(2,6-dichlorophenyl)isoxazol-4-yl)methoxy)methyl)bicyclo[2.2.2]octan-1-yl)-1,2,4-oxadiazol-3-yl)benzoic acid] | 150 |
| O=C(O)c1ccc(-c2noc(C34CCC(COCc5c(-c6c(Cl)cccc6Cl)noc5C5CC5)(CC3)CC4)n2)cc1 [Example 152] | 140 |
| O=C(O)c1cccc(-c2noc(C34CCC(COCc5c(-c6ccccc6OC(F)(F)F)noc5C5CC5)(CC3)CC4)n2)c1 [Example 153] | 320 |
| O=C(O)c1ccc(-c2noc(C34CCC(COCc5c(-c6ccccc6OC(F)(F)F)noc5C5CC5)(CC3)CC4)n2)cc1 [Example 154] | 960 |
| COC(=O)c1ccc(-c2noc(C34CCC(COCc5c(-c6ccccc6OC(F)(F)F)noc5C5CC5)(CC3)CC4)n2)cc1 [Example 155] | 2500 |
| COC(=O)c1ccc(-c2noc(C34CCC(COCc5c(-c6c(Cl)cccc6Cl)noc5C5CC5)(CC3)CC4)n2)cc1 [Example 156] | 1700 |
| O=C(O)c1cccc(-c2noc(C34CCC(/C=C/c5c(-c6c(Cl)cccc6Cl)noc5C5CC5)(CC3)CC4)n2)c1 [Example 159, (E)-3-(5-(4-(2-(5-cyclopropyl-3-(2,6-dichlorophenyl)isoxazol-4-yl)vinyl)bicycle[2.2.2]octan-1-yl)-1,2,4-oxadiazol-3-yl)benzoic acid] | 14 |
| O=C(O)c1ccc(-c2noc(C34CCC(/C=C/c5c(-c6c(Cl)cccc6Cl)noc5C5CC5)(CC3)CC4)n2)cc1 [Example 160] | 51 |
| COC(=O)c1ccc(-c2noc(C34CCC(C=Cc5c(-c6c(Cl)cccc6Cl)noc5C5CC5)(CC3)CC4)n2)cc1 [Example 161] | 950 |
| O=C(O)c1csc(C23CCC(COCc4c(-c5c(Cl)cccc5Cl)noc4C4CC4)(CC2)CC3)n1 [Example 162, 2-(4-(((5-cyclopropyl-3-(2,6-dichlorophenyl)isoxazol-4-yl)methoxy)methyl)bicyclo[2.2.2]octan-1-yl)thiazole-4-carboxylic acid] | 1300 |
| O=C(O)c1cccc(-c2noc(C34CCC(/C=C\c5c(-c6c(Cl)cccc6Cl)noc5C5CC5)(CC3)CC4)n2)c1 [Example 163, (Z)-3-(5-(4-(2-(5-cyclopropyl-3-(2,6-dichlorophenyl)isoxazol-4-yl)vinyl)bicyclo[2.2.2]octan-1-yl)-1,2,4-oxadiazol-3-yl)benzoic acid] | 211 |
| O=C(O)c1ccc(-c2noc(C34CCC(/C=C\c5c(-c6c(Cl)cccc6Cl)noc5C5CC5)(CC3)CC4)n2)cc1 [Example 164] | 1600 |
| O=C(O)c1cccc(-c2noc(C34CCC(CNc5c(-c6c(Cl)cccc6Cl)noc5C5CC5)(CC3)CC4)n2)c1 [Example 166, 3-(5-(4-(((5-cyclopropyl-3-(2,6-dichlorophenyl)isoxazol-4-yl)amino)methyl)bicyclo[2.2.2]octan-1-yl)-1,2,4-oxadiazol-3-yl)benzoic acid] | 580 |

| SMILES | EC50 [nM] |
| --- | --- |
| O=C(O)c1ccc(-c2noc(C34CCC(CNc5c(-c6c(Cl)cccc6Cl)noc5C5CC5)(CC3)CC4)n2)cc1 [Example 167] | 530 |
| O=C(O)c1ccc2nc(C34CCC(COCc5c(-c6c(Cl)cccc6Cl)noc5C5CC5)(CC3)CC4)sc2c1 [Example 168, 2-(4-(((5-cyclopropyl-3-(2,6-dichlorophenyl)isoxazol-4-yl)methoxy)methyl)bicyclo[2.2.2]octan-1-yl)benzo[d]thiazole-6-carboxylic acid] | 1200 |
| O=C(O)c1ccc(NC(=O)C23CCC(COCc4c(-c5c(Cl)cccc5Cl)noc4C4CC4)(CC2)CC3)c(Cl)c1 [Example 170, 3-chloro-4-(4-(((5-cyclopropyl-3-(2,6-dichlorophenyl)isoxazol-4-yl)methoxy)methyl)bicyclo[2.2.2]octane-1-carboxamido)benzoic acid] | 636 |
| O=C(O)c1ccc(NC(=S)C23CCC(COCc4c(-c5c(Cl)cccc5Cl)noc4C4CC4)(CC2)CC3)c(Cl)c1 [Example 171, 3-chloro-4-(4-(((5-cyclopropyl-3-(2,6-dichlorophenyl)isoxazol-4-yl)methoxy)methyl)bicyclo[2.2.2]octane-1-carbothioamido)benzoic acid] | 4700 |
| O=C(O)c1cccc2nc(C34CCC(COCc5c(-c6c(Cl)cccc6Cl)noc5C5CC5)(CC3)CC4)sc12 [Example 172, 2-(4-(((5-cyclopropyl-3-(2,6-dichlorophenyl)isoxazol-4-yl)methoxy)methyl)bicyclo[2.2.2]octan-1-yl)benzo[d]thiazole-7-carboxylic acid] | 89 |
| O=C(O)c1cccc(NC(=O)C23CCC(COCc4c(-c5c(Cl)cccc5Cl)noc4C4CC4)(CC2)CC3)c1Cl [Example 173] | 1400 |
| O=C(O)c1ccc(C23CCC(COCc4c(-c5c(Cl)cccc5Cl)noc4C4CC4)(CC2)CC3)cc1 [Example 174, 4-(4-(((5-cyclopropyl-3-(2,6-dichlorophenyl)isoxazol-4-yl)methoxy)methyl)bicyclo[2.2.2]octan-1-yl)benzoic acid] | 210 |
| O=C(O)c1csc(OCC23CCC(COCc4c(-c5c(Cl)cccc5Cl)noc4C4CC4)(CC2)CC3)n1 [Example 176, 2-((4-(((5-cyclopropyl-3-(2,6-dichlorophenyl)isoxazol-4-yl)methoxy)methyl)bicyclo[2.2.2]octan-1-yl)methoxy)thiazole-4-carboxylic acid] | 740 |
| O=C(O)c1coc(C23CCC(COCc4c(-c5c(Cl)cccc5Cl)noc4C4CC4)(CC2)CC3)n1 [Example 177, 2-(4-(((5-cyclopropyl-3-(2,6-dichlorophenyl)isoxazol-4-yl)methoxy)methyl)bicyclo[2.2.2]octan-1-yl)oxazole-4-carboxylic acid] | 1800 |
| O=C(O)c1ccc2nc(C34CCC(COCc5c(-c6c(Cl)cccc6Cl)noc5C5CC5)(CC3)CC4)oc2c1 [Example 178, 2-(4-(((5-cyclopropyl-3-(2,6-dichlorophenyl)isoxazol-4-yl)methoxy)methyl)bicyclo[2.2.2]octan-1-yl)benzo[d]oxazole-6-carboxylic acid] | 910 |
| Cc1nc(C23CCC(COCc4c(-c5c(Cl)cccc5Cl)noc4C4CC4)(CC2)CC3)sc1C(=O)O [Example 179, 2-(4-(((5-cyclopropyl-3-(2,6-dichlorophenyl)isoxazol-4-yl)methoxy)methyl)bicyclo[2.2.2]octan-1-yl)-4-methylthiazole-5-carboxylic acid] | 560 |
| O=C(O)c1ccc2nc(C34CCC(/C=C/c5c(-c6c(Cl)cccc6Cl)noc5C5CC5)(CC3)CC4)sc2c1 [Example 180, (E)-2-(4-(2-(5-cyclopropyl-3-(2,6-dichlorophenyl)isoxazol-4-yl)vinyl)bicyclo[2.2.2]octan-1-yl)benzo[d]thiazole-6-carboxylic acid] | 43 |
| O=C(O)c1ccc2nc(C34CCC(/C=C\c5c(-c6c(Cl)cccc6Cl)noc5C5CC5)(CC3)CC4)sc2c1 [Example 181, (Z)-2-(4-(2-(5-cyclopropyl-3-(2,6-dichlorophenyl)isoxazol-4-yl)vinyl)bicyclo[2.2.2]octan-1-yl)benzo[d]thiazole-6-carboxylic acid] | 780 |
| O=C(O)c1ccc2nc(C34CCC(/C=C/c5c(-c6ccccc6OC(F)(F)F)noc5C5CC5)(CC3)CC4)sc2c1 [Example 182, (E)-2-(4-(2-(5-cyclopropyl-3-(2-(trifluoromethoxy)phenyl)isoxazol-4-yl)vinyl)bicyclo[2.2.2]octan-1-yl)benzo[d]thiazole-6-carboxylic acid] | 100 |
| O=C(O)c1cccc2nc(C34CCC(C=Cc5c(-c6ccccc6OC(F)(F)F)noc5C5CC5)(CC3)CC4)sc12 [Example 183] | 13 |
| O=C(O)c1cccc2nc(C34CCC(C=Cc5c(-c6c(Cl)cccc6Cl)noc5C5CC5)(CC3)CC4)sc12 [Example 184] | 20 |
| O=C(O)c1cccc(NC(=O)C23CCC(C=Cc4c(-c5c(Cl)cccc5Cl)noc4C4CC4)(CC2)CC3)c1Cl [Example 185] | 1400 |
| O=C(O)c1cccc2nc(C34CCC(C=Cc5c(-c6ccccc6OC(F)(F)F)noc5C5CC5)(CC3)CC4)sc12 [Example 186] | 67 |
